US20140309210A1, “INDAZOLE COMPOUNDS, COMPOSITIONS AND METHODS OF USE THEREOF” (Genentech, Inc., priority 2011, published 2014)

target: T1, purified ITK (Invitrogen PV3875) (Homo sapiens, UniProt Q08881); experiment: ITK peptide phosphorylation assay (Caliper LabChip or LCMS); assay type: biochemical; settings: Table 1, Examples 141-279
T1 construct: purchased Invitrogen PV3875
T1 sequence (Q08881 1-620): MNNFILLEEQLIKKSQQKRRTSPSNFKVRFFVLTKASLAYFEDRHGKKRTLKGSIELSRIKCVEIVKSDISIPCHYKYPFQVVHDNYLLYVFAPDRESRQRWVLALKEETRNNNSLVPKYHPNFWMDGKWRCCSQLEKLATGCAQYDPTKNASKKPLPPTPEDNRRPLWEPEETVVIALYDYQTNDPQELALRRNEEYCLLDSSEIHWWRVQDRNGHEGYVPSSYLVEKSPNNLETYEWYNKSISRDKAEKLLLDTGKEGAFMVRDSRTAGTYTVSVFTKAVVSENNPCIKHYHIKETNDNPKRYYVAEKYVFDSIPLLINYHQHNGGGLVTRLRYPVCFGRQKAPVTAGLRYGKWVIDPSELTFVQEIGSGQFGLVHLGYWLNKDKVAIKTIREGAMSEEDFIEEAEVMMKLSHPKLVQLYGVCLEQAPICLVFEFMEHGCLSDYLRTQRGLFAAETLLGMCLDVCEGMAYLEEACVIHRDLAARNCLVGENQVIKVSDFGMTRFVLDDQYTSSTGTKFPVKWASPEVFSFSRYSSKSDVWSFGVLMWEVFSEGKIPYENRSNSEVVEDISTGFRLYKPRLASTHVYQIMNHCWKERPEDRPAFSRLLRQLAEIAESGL
In short: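 Purified human ITK peptide phosphorylation, quenched with EDTA (50 mM final) for Caliper LabChip separation or TCA (5% v/v final) for UPLC-MS/MS MRM quantification. Ki derived via Morrison tight-binding equation, corrected for competitive inhibition using ATP concentration relative to Km,app.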

For `O=C(Nc1cnn(CCC2CCCCC2)c1)c1n[nH]c2cc(-c3cn[nH]c3)ccc12` [Example 169, N-[1-(2-cyclohexylethyl)py-razol-4-yl]-6-(1H-pyrazol-4-yl)-1H-indazole-3-carboxamide], which Ki is on record?
Its Ki is 7.65 nM.

Which Ki does the source give for `CC(C)(O)Cn1cc(NC(=O)c2n[nH]c3cc(-c4cn[nH]c4)ccc23)cn1` [Example 170, N-[1-(2-hydroxy-2-methyl-propyl)pyrazol-4-yl]-6-(1H-pyrazol-4-yl)-1H indazole-3-carboxamide] here?
Its Ki is 8.74 nM.

For `CCN(CC)CCn1cc(NC(=O)c2n[nH]c3cc(-c4cn[nH]c4)ccc23)cn1` [Example 171, N-[1-[2-(diethylamino)eth-yl]pyrazol-4-yl]-6-(1H-pyrazol-4-yl)-1H-indazole-3-carboxamide], which Ki is on record?
The Ki was 7.99 nM.

`CN1CCC(Nc2ccc3c(C(=O)Nc4cnn(Cc5cccc(C#N)c5)c4)n[nH]c3c2)C1` (stereo not drawn) [Example 172, N-[1-[(3-cyanophenyl)meth-yl]pyrazol-4-yl]-6-[(1-methylpyrrolidin-3-yl)amino]-1H-indazole-3-carboxamide] was tested. Which Ki did it give?
The Ki was 1400 nM.

How did the Ki turn out when `N#Cc1cccc(Cn2cc(NC(=O)c3n[nH]c4cc(NC5CCNCC5)ccc34)cn2)c1` [Example 173, N-[1-[(3-cyanophenyl)meth-yl]pyrazol-4-yl]-6-(4-piperidylamino)-1H-indazole-3-carboxamide] was run?
The Ki was 1200 nM.

`CC[C@H](c1cscn1)n1cc(NC(=O)c2n[nH]c3cc(-c4cn[nH]c4)ccc23)cn1` [Example 174, 6-(1H-pyrazol-4-yl)-N-[1-[(1R)-1-thiazol-4-ylpropyl]pyrazol-4-yl]-1H-indazole-3-carboxamide] was tested. Which Ki did it give?
Its Ki is 1.42 nM.

For `CC[C@@H](c1cscn1)n1cc(NC(=O)c2n[nH]c3cc(-c4cn[nH]c4)ccc23)cn1` [Example 175, 6-(1H-pyrazol-4-yl)-N-[1-[(1S)-1-thiazol-4-ylpropyl]pyrazol-4-yl]-1H-indazole-3-carboxamide], which Ki is on record?
Its Ki is 0.7 nM.

How did the Ki turn out when `CN1CCN(c2ccc3c(C(=O)Nc4cnn(Cc5cccc(C#N)c5)c4)n[nH]c3c2)CC1` [Example 176, N-[1-[(3-cyanophenyl)meth-yl]pyrazol-4-yl]-6-(4-methylpiperazin-1-yl)-1H-indazole-3-carboxamide] was run?
The Ki was 374 nM.

For `O=C(Nc1cnn([C@@H](CO)c2cscn2)c1)c1n[nH]c2cc(-c3cn[nH]c3)ccc12` [Example 177, N-[1-[(1R)-2-hydroxy-1-thiazol-4-yl-ethyl]pyrazol-4-yl]-6-(1H-pyrazol-4-yl)-1H-indazole-3-carboxamide], which Ki is on record?
Its Ki is 7.5 nM.

`O=C(Nc1cnn([C@H](CO)c2cscn2)c1)c1n[nH]c2cc(-c3cn[nH]c3)ccc12` [Example 178, N-[1-[(1S)-2-hydroxy-1-thiazol-4-yl-ethyl]pyrazol-4-yl]-6-(1H-pyrazol-4-yl)-1H-indazole-3-carboxamide] was tested. Which Ki did it give?
The Ki was 6.19 nM.

Which Ki does the source give for `N#Cc1cccc(Cn2cc(NC(=O)c3n[nH]c4cc(C5CCNCC5)ccc34)cn2)c1` [Example 179, N-[1-[(3-cyanophenyl)meth-yl]pyrazol-4-yl]-6-(4-piperidyl)-1H-indazole-3-carboxamide] here?
The Ki was 154 nM.

`N#Cc1cccc(Cn2cc(NC(=O)c3n[nH]c4ccc(NC5CCNCC5)cc34)cn2)c1` [Example 180, N-[1-[(3-cyanophenyl)methyl]pyrazol-4-yl]-5-(4-piperidylamino)-1H-indazole-3-carboxamide] was tested. Which Ki did it give?
Its Ki is 2.71 nM.

With `O=C(Nc1cnn(Cc2ccccc2)c1)c1n[nH]c2cc(-c3cn[nH]c3)ccc12` [Example 181, N-(1-benzylpyrazol-4-yl)-6-(1H-pyrazol-4-yl)-1H-indazole-3-carboxamide] as the compound, how does the Ki read?
Its Ki is 1.07 nM.

How did the Ki turn out when `N#Cc1cccc(Cn2cc(NC(=O)c3n[nH]c4cc(C5CNC5)ccc34)cn2)c1` [Example 182, 6-(azetidin-3-yl)-N-[1-[(3-cyanophenyl)meth-yl]pyrazol-4-yl]-1H-indazole-3-carboxamide] was run?
Its Ki is 240 nM.

Which Ki does the source give for `N#Cc1cccc(Cn2cc(NC(=O)c3n[nH]c4ccc(NC5CCNC5)cc34)cn2)c1` (stereo not drawn) [Example 183, N-[1-[(3-cyanophenyl)meth-yl]pyrazol-4-yl]-5-(pyrrolidin-3-ylamino)-1H-indazole-3-carboxamide] here?
Its Ki is 7.52 nM.

`CN1CCC(Nc2ccc3[nH]nc(C(=O)Nc4cnn(Cc5cccc(C#N)c5)c4)c3c2)CC1` [Example 184, N-[1-[(3-cyanophenyl)meth-yl]pyrazol-4-yl]-5-[(1-methyl-4-piperidyl)amino]-1H-indazole-3-carboxamide] was tested. Which Ki did it give?
The Ki was 1.33 nM.

How did the Ki turn out when `O=C(Nc1cnn(C2CCOc3ccccc32)c1)c1n[nH]c2cc(-c3cn[nH]c3)ccc12` (stereo not drawn) [Example 185, N-(1-chroman-4-ylpyrazol-4-yl)-6-(1H-pyrazol-4-yl)-1H-indazole-3-carboxamide] was run?
Its Ki is 759 nM.

`CC(CO)c1ccc2[nH]nc(C(=O)Nc3cnn(Cc4cccc(C#N)c4)c3)c2c1` (stereo not drawn) [Example 186, N-[1-[(3-cyanophenyl)meth-yl]pyrazol-4-yl]-5-(2-hydroxy-1-methyl-ethyl)-1H-indazole-3-carboxamide] was tested. Which Ki did it give?
The Ki was 22 nM.

For `CC(CO)c1ccc2[nH]nc(C(=O)Nc3cnn(Cc4cccc(C#N)c4)c3)c2c1` (stereo not drawn) [Example 187, N-[1-[(3-cyanophenyl)meth-yl]pyrazol-4-yl]-5-(2-hydroxy-1-methyl-ethyl)-1H-indazole-3-carboxamide], which Ki is on record?
Its Ki is 7.8 nM.

For `CN1CCC(c2ccc3c(C(=O)Nc4cnn(Cc5cccc(C#N)c5)c4)n[nH]c3c2)C1` (stereo not drawn) [Example 188, N-[1-[(3-cyanophenyl)meth-yl]pyrazol-4-yl]-6-(1-methylpyrrolidin-3-yl)-1H-indazole-3-carboxamide], which Ki is on record?
The Ki was 1600 nM.

For `CNc1cncc(-c2ccc3c(C(=O)Nc4cnn(Cc5ccccc5)c4)n[nH]c3c2)n1` [Example 189, N-(1-benzylpyrazol-4-yl)-6-[6-(methylamino)py-razin-2-yl]-1H-indazole-3-carboxamide], which Ki is on record?
Its Ki is 24.8 nM.

Which Ki does the source give for `CNc1ncc(-c2ccc3c(C(=O)Nc4cnn(Cc5ccccc5)c4)n[nH]c3c2)s1` [Example 190, N-(1-benzylpyrazol-4-yl)-6-[2-(methylamino)thi-azol-5-yl]-1H-indazole-3-carboxamide] here?
Its Ki is 18.5 nM.

For `CN1CC(c2ccc3c(C(=O)Nc4cnn(Cc5cccc(C#N)c5)c4)n[nH]c3c2)C1` [Example 191, N-[1-[(3-cyanophenyl)meth-yl]pyrazol-4-yl]-6-(1-methylazetidin-3-yl)-1H-indazole-3-carboxamide], which Ki is on record?
The Ki was 2400 nM.

With `CC(C)n1cc(NC(=O)c2n[nH]c3cc(-c4cn[nH]c4)ccc23)cn1` [Example 192, N-(1-isopropylpyrazol-4-yl)-6-(1H-pyrazol-4-yl)-1H-indazole-3-carboxamide] as the compound, how does the Ki read?
The Ki was 10.2 nM.

`N#Cc1cccc(Cn2cc(NC(=O)c3n[nH]c4ccc(C5(CO)CC5)cc34)cn2)c1` [Example 193, N-[1-[(3-cyanophenyl)meth-yl]pyrazol-4-yl]-5-[1-(hydroxymeth-yl)cyclopropyl]-1H-indazole-3-carboxamide] was tested. Which Ki did it give?
Its Ki is 26.3 nM.

Which Ki does the source give for `N#Cc1cccc(Cn2cc(NC(=O)c3n[nH]c4ccc(NC5CCOCC5)cc34)cn2)c1` [Example 194, N-[1-[(3-cyanophenyl)meth-yl]pyrazol-4-yl]-5-(tetrahydropyran-4-ylamino)-1H-indazole-3-carboxamide] here?
Its Ki is 106 nM.

With `N#Cc1cccc(Cn2cc(NC(=O)c3n[nH]c4ccc(NC5CCCCC5)cc34)cn2)c1` [Example 195, N-[1-[(3-cyanophenyl)meth-yl]pyrazol-4-yl]-5-(cyclohexylamino)-1H-indazole-3-carboxamide] as the compound, how does the Ki read?
The Ki was 42.4 nM.

With `Cn1nccc1-c1ccc2c(C(=O)Nc3cnn(Cc4cccc(C#N)c4)c3)n[nH]c2c1` [Example 196, N-[1-[(3-cyanophenyl)meth-yl]pyrazol-4-yl]-6-(2-methylpyrazol-3-yl)-1H-indazole-3-carboxamide] as the compound, how does the Ki read?
Its Ki is 354 nM.

Which Ki does the source give for `N#Cc1cccc(Cn2cc(NC(=O)c3n[nH]c4cc(-c5cnco5)ccc34)cn2)c1` [Example 197, N-[1-[(3-cyanophenyl)meth-yl]pyrazol-4-yl]-6-oxazol-5-yl-1H-indazole-3-carboxamide] here?
The Ki was 2.04 nM.

`Cn1nc(C(F)(F)F)cc1-c1ccc2c(C(=O)Nc3cnn(Cc4cccc(C#N)c4)c3)n[nH]c2c1` [Example 198, N-[1-[(3-cyanophenyl)meth-yl]pyrazol-4-yl]-6-[2-methyl-5-(trifluorometh-yl)pyrazol-3-yl]-1H-indazole-3-carboxamide] was tested. Which Ki did it give?
Its Ki is 183 nM.

`Cc1cncc(-c2ccc3c(C(=O)Nc4cnn(Cc5cccc(C#N)c5)c4)n[nH]c3c2)c1` [Example 199, N-[1-[(3-cyanophenyl)meth-yl]pyrazol-4-yl]-6-(5-methyl-3-pyridyl)-1H-indazole-3-carboxamide] was tested. Which Ki did it give?
Its Ki is 8.41 nM.

How did the Ki turn out when `CN(C)CCC(c1cscn1)n1cc(NC(=O)c2n[nH]c3cc(-c4cn[nH]c4)ccc23)cn1` (stereo not drawn) [Example 200, N-[1-[3-(dimethylamino)-1-thiazol-4-yl-propyl]pyrazol-4-yl]-6-(1H-pyrazol-4-yl)-1H-indazole-3-carboxamide] was run?
Its Ki is 0.727 nM.

For `CN(C)CCC(c1cscn1)n1cc(NC(=O)c2n[nH]c3cc(-c4cn[nH]c4)ccc23)cn1` (stereo not drawn) [Example 201, N-[1-[3-(dimethylamino)-1-thiazol-4-yl-propyl]pyrazol-4-yl]-6-(1H-pyrazol-4-yl)-1H indazole-3-carboxamide], which Ki is on record?
The Ki was 2.89 nM.
